As usually defined, the ED50 is the midpoint of the dose-response relation.

One series relates to S. aureus Tour. Put plainly: In vitro antibacterial activity (MIC), standard dilution test. The class given is cell-based. The source says: Isosensitest broth (Oxoid) and Todd-Hewitt broth (Difco) are used for growing staphylococci and streptococci, respectively. […]
The test system of series [1] is S. epidermidis ATCC 12228. The description is as above. It is filed as cell-based. As for the experimental part:
(§1) Isosensitest broth (Oxoid) and Todd-Hewitt broth (Difco) are used for growing staphylococci and streptococci, respectively. Broth cultures are diluted so that the final inoculum is about 10⁴ colony forming units/ml (CFU/ml).

In a further series the test system is S. pneumoniae UC41. Described as above. It is filed as cell-based. As for the experimental part:
as §1

A further series deals with S. pyogenes C203. The description is as above. It is filed as cell-based. As for the experimental part: as §1
For the next series, the system named is S. faecalis ATCC 7080. The description is as above. The class given is cell-based. As for the experimental part:
as §1

For another series, the system named is S. haemolyticus L 602. The description is as above. It is filed as cell-based. As for the experimental part: as §1
The test system of series [2] is P. vulgaris X19H ATCC 881. Described as above. It is filed as cell-based.
A further series has as its system E. coli SKF 12140. The description is as above. It is filed as cell-based.
The next series concerns P. aeruginosa ISM. Described as above. It is filed as cell-based.
The test system of the next series is S. pyogenes L 49. Put plainly: In vivo test in mice experimentally infected with S. pyogenes L 49 (ED50). As for the experimental part: The ED₅₀ values (mg/Kg) of representative compounds of the invention in vivo tests in mice experimentally infected with S. pyogenes L 49 and reported in Table V were carried out according to the procedure described by V. Arioli et al., Journal of Antibiotics 29, 511 (1976).

Another series can be described thus: Acid-base titration. It is filed as physicochemical. The note with it: Methylcellosolve/H₂O, 4/1 (v/v); titrated with 0.01 N NaOH after adding 0.01 N HCl.
Where [3] appears, read: S. aureus Tour + 30% bovine serum.
Where [4] appears, read: S. haemolyticus L 602, no visible growth after 18-24 h at 37°C, inoculum about 10⁴ CFU/ml.
[5] abbreviates: Streptococcus pyogenes, L49, sc, S. pyogenes L 49, s.c., read-out: ED50.
Where [6] appears, read: Staphylococcus aureus, S. aureus Tour 10^4, read-out: MIC.
Setting [7] is: Staphylococcus aureus, S. aureus Tour 10^6, read-out: MIC.
The mark [8] stands for this setting: Staphylococcus aureus, S. aureus Tour + 30% bovine serum, read-out: MIC.
Where [9] appears, read: Staphylococcus epidermidis, ATCC12228, read-out: MIC.
[10] abbreviates: Streptococcus pneumoniae, read-out: MIC.
[11] abbreviates: Streptococcus pyogenes, read-out: MIC.
The mark [12] stands for this setting: Enterococcus faecalis, ATCC7080, read-out: MIC.
Where [13] appears, read: Staphylococcus haemolyticus, L602, S. haemolyticus L 602, no visible growth after 18-24 h at 37°C, inoculum about 10⁴ CFU/ml, read-out: MIC.
Where [14] appears, read: Proteus vulgaris, ATCC881, read-out: MIC.
Where [15] appears, read: Escherichia coli, SKF12140, read-out: MIC.
[16] abbreviates: Pseudomonas aeruginosa, read-out: MIC.

In brackets after ≈: the same amount, converted by molar mass. Where two headings read alike, the source gives them in different places.

Regarding “N¹⁵-(1-methyl-2-hydroxy)ethyl teicoplanin [Compound 6]”, the MIC was found to be 0.25 microgram/ml against S. aureus Tour (S. aureus Tour 10^4); 1 microgram/ml against S. aureus Tour (S. aureus Tour 10^6); 2 microgram/ml in the series on S. aureus Tour (setting [3]); 0.5 microgram/ml in series [1]; 0.25 microgram/ml in the series on S. pneumoniae UC41; 0.12 microgram/ml against S. pyogenes C203. The MIC with S. faecalis ATCC 7080 is recorded as 0.12 microgram/ml; in the series with S. haemolyticus L 602 (setting [4]) it was 1.6 microgram/ml; in series [2], over 128 microgram/ml; against E. coli SKF 12140 it was over 128 microgram/ml; in the series with P. aeruginosa ISM, over 128 microgram/ml.
With “N¹⁵-(2-dimethylamino)ethyl teicoplanin [Compound 3]”, the median effective dose (ED50) is reported as over 300 mg/kg with S. pyogenes L 49 (S. pyogenes L 49, o.s.) and 0.41 mg/kg in the series on S. pyogenes L 49 (S. pyogenes L 49, s.c.). Also, the MIC with S. aureus Tour (S. aureus Tour 10^4) was 0.125 microgram/ml; in the series on S. aureus Tour (S. aureus Tour 10^6) it was 0.5 microgram/ml; in the series with S. aureus Tour (setting [3]), 0.5 microgram/ml; in series [1], 0.125 microgram/ml; against S. pneumoniae UC41, 0.125 microgram/ml; against S. pyogenes C203 it was 0.125 microgram/ml. The MIC against S. faecalis ATCC 7080 is on record as 0.125 microgram/ml; against S. haemolyticus L 602 (setting [4]) it was 2 microgram/ml; in [2], over 128 microgram/ml; in the series on E. coli SKF 12140, over 128 microgram/ml; against P. aeruginosa ISM, over 128 microgram/ml. The pK₁ in “Acid-base titration” was 4.85. This compound also gave a pK₂ in “Acid-base titration” of 6.2. Also, in the series “Acid-base titration”, the pK₃ is 8.45.
Regarding “N¹⁵-(1-methyl-2-hydroxy)propyl) teicoplanin [Compound 2]”, the MIC was 0.5 microgram/ml against S. aureus Tour (S. aureus Tour 10^4); 1 microgram/ml against S. aureus Tour (S. aureus Tour 10^6); 2 microgram/ml in the series on S. aureus Tour (setting [3]); 0.25 microgram/ml in [1]; 0.25 microgram/ml in the series with S. pneumoniae UC41; 0.06 microgram/ml against S. pyogenes C203. Further, the MIC in the series with S. faecalis ATCC 7080 is reported as 0.12 microgram/ml; against S. haemolyticus L 602 (setting [4]) it was 16 microgram/ml; in series [2], over 128 microgram/ml; in the series with E. coli SKF 12140 it was over 128 microgram/ml; against P. aeruginosa ISM, over 128 microgram/ml. The compound also yielded a pK₁ in the series “Acid-base titration” of 5.05. This compound also registered a pK₂ in the series “Acid-base titration” of 6.35.
As for “N¹⁵-(2-methoxyethoxy)methyl teicoplanin [Compound 4]”, the MIC came out at 0.12 microgram/ml against S. aureus Tour (S. aureus Tour 10^4); 0.5 microgram/ml with S. aureus Tour (S. aureus Tour 10^6); 1 microgram/ml in the series with S. aureus Tour (setting [3]); 0.125 microgram/ml in [1]; 0.125 microgram/ml in the series with S. pneumoniae UC41; 0.06 microgram/ml against S. pyogenes C203. The MIC in the series with S. faecalis ATCC 7080 is listed as 0.125 microgram/ml; with S. haemolyticus L 602 (setting [4]) it was 8 microgram/ml; in series [2] it was over 128 microgram/ml; against E. coli SKF 12140 it was over 128 microgram/ml; in the series with P. aeruginosa ISM it was over 128 microgram/ml.
For `CC(O)C(C)NC1C(=O)NC2Cc3ccc(c(Cl)c3)Oc3cc4cc(c3O)Oc3ccc(cc3Cl)C(O)C3NC(=O)C(NC(=O)C4NC(=O)C(NC2=O)c2cc(O)cc(c2)Oc2cc1ccc2O)c1ccc(O)c(c1)-c1c(O)cc(O)cc1C(C(=O)O)NC3=O` (stereo not drawn) [Compound 8, N¹⁵-(1-methyl-2-hydroxy)propyl teicoplanin aglycon], in the series with S. pyogenes L 49 (setting [5]), the ED50 was 0.86 mg/kg. The MIC with S. aureus Tour (setting [6]) came out at 0.12 µg/mL (≈ 0.0944 µM); with S. aureus Tour (setting [7]), 0.12 µg/mL (≈ 0.0944 µM); in the series on S. aureus Tour (setting [8]) it was 2 µg/mL; in series [1] (setting [9]), 0.06 µg/mL (≈ 0.0472 µM); in the series on S. pneumoniae UC41 (setting [10]), 0.25 µg/mL (≈ 0.197 µM); in the series on S. pyogenes C203 (setting [11]) it was 0.12 µg/mL (≈ 0.0944 µM). In addition, the MIC was 0.12 µg/mL (≈ 0.0944 µM) in the series with S. faecalis ATCC 7080 (setting [12]); 0.5 µg/mL (≈ 0.393 µM) in the series on S. haemolyticus L 602 (setting [13]); over 128 µg/mL in series [2] (setting [14]); over 128 µg/mL in the series on E. coli SKF 12140 (setting [15]); over 128 µg/mL with P. aeruginosa ISM (setting [16]).
As to “N¹⁵-(2,3-Dihydroxy)propyl teicoplanin [Compound 1]”, the MIC is 0.5 microgram/ml in the series on S. aureus Tour (S. aureus Tour 10^4); 2 microgram/ml in the series on S. aureus Tour (S. aureus Tour 10^6); 2 microgram/ml in the series on S. aureus Tour (setting [3]); 0.25 microgram/ml in series [1]; 0.25 microgram/ml with S. pneumoniae UC41; 0.06 microgram/ml in the series on S. pyogenes C203. The MIC in the series with S. faecalis ATCC 7080 is given as 0.12 microgram/ml; against S. haemolyticus L 602 (setting [4]), 32 microgram/ml; in series [2], over 128 microgram/ml; against E. coli SKF 12140 it was over 128 microgram/ml; in the series on P. aeruginosa ISM it was over 128 microgram/ml. Besides, the pK₁ in the series “Acid-base titration” was 4.7. In addition, the pK₂ in “Acid-base titration” is 6.
In the case of `CC(CO)NC1C(=O)NC2Cc3ccc(c(Cl)c3)Oc3cc4cc(c3O)Oc3ccc(cc3Cl)C(O)C3NC(=O)C(NC(=O)C4NC(=O)C(NC2=O)c2cc(O)cc(c2)Oc2cc1ccc2O)c1ccc(O)c(c1)-c1c(O)cc(O)cc1C(C(=O)O)NC3=O` (stereo not drawn) [Compound 7, N¹⁵-(1-methyl-2-hydroxy)ethyl teicoplanin aglycon], the ED50 in the series with S. pyogenes L 49 (setting [5]) was determined as 0.84 mg/kg. For the same compound, the MIC came to 0.06 µg/mL (≈ 0.0477 µM) in the series on S. aureus Tour (setting [6]); 0.12 µg/mL (≈ 0.0955 µM) with S. aureus Tour (setting [7]); 1 µg/mL with S. aureus Tour (setting [8]); 0.06 µg/mL (≈ 0.0477 µM) in series [1] (setting [9]); 0.12 µg/mL (≈ 0.0955 µM) in the series on S. pneumoniae UC41 (setting [10]); 0.12 µg/mL (≈ 0.0955 µM) in the series on S. pyogenes C203 (setting [11]). The MIC with S. faecalis ATCC 7080 (setting [12]) was 0.25 µg/mL (≈ 0.199 µM); in the series with S. haemolyticus L 602 (setting [13]), 0.5 µg/mL (≈ 0.398 µM); in series [2] (setting [14]), over 128 µg/mL; with E. coli SKF 12140 (setting [15]), over 128 µg/mL; with P. aeruginosa ISM (setting [16]), over 128 µg/mL.
On to `CN(C)CCNC1C(=O)NC2Cc3ccc(c(Cl)c3)Oc3cc4cc(c3O)Oc3ccc(cc3Cl)C(O)C3NC(=O)C(NC(=O)C4NC(=O)C(NC2=O)c2cc(O)cc(c2)Oc2cc1ccc2O)c1ccc(O)c(c1)-c1c(O)cc(O)cc1C(C(=O)O)NC3=O` (stereo not drawn) [Compound 5, N¹⁵-(2-dimethylamino)ethyl teicoplanin aglycon], for which the 50% effective dose (ED50) in the series on S. pyogenes L 49 (setting [5]) stood at 1.25 mg/kg. Moreover, the MIC stood at 0.125 µg/mL (≈ 0.0984 µM) in the series with S. aureus Tour (setting [6]); 0.125 µg/mL (≈ 0.0984 µM) with S. aureus Tour (setting [7]); 1 µg/mL in the series on S. aureus Tour (setting [8]); 0.06 µg/mL (≈ 0.0472 µM) in [1] (setting [9]); 0.125 µg/mL (≈ 0.0984 µM) in the series on S. pneumoniae UC41 (setting [10]); 0.25 µg/mL (≈ 0.197 µM) with S. pyogenes C203 (setting [11]). The MIC was 0.25 µg/mL (≈ 0.197 µM) with S. faecalis ATCC 7080 (setting [12]); 0.5 µg/mL (≈ 0.394 µM) against S. haemolyticus L 602 (Staphylococcus haemolyticus, L602); over 128 µg/mL in series [2] (setting [14]); over 128 µg/mL in the series on E. coli SKF 12140 (setting [15]); over 128 µg/mL in the series with P. aeruginosa ISM (setting [16]). Further, the pK₁ in the series “Acid-base titration” is given as 4.75. In “Acid-base titration”, this compound registered a pK₂ of 6.5.
